Data: patent US20110256240A1, “Combination Therapy” (priority 2004, published 2011)

Tested on: range of tumour models
Assay: anti-tumour activity in a range of models
Format: in vivo
Conditions: once-daily oral administration

COc1cc2c(Oc3ccc4[nH]c(C)cc4c3F)ncnc2cc1OCCCN1CCCC1 [AZD2171, 4-(4-fluoro-2-methyl-1H-indol-5-yloxy)-6-methoxy-7-(3-(pyrrolidin-1-yl)propoxy)quinazoline]
anti-tumour activity in a range of models: broad-spectrum anti-tumour activity
